# Results: US9512075B2 (OKAYAMA UNIVERSITY, priority 2012, dated 2016)
# Like-named read-outs stand apart in the source and are kept apart here.
# Tests used:
# Type in all cases: cell-based
# [1] = system: Clostridium difficile JCM1296 strain; experiment: microbe, parasite or virus in culture; settings: Clostridioides difficile, JCM1296, read-out: MIC Clostridium difficile JCM1296
# [2] = system: Clostridium perfringens PB6K strain; experiment: microbe, parasite or virus in culture; settings: Clostridium perfringens, PB6KSTRAIN, read-out: MIC Clostridium perfringens PB6K, PB6K strain; CD medium, 37° C. overnight, 10% CO2-containing anaerobic conditions
# [3] = system: Enterococcus faecalis NCTC12201 strain (vancomycin-resistant Enterococcus: VRE); experiment: MIC for Enterococcus faecalis NCTC12201 strain (VRE); settings: read-out: MIC Enterococcus faecalis NCTC 12201 (VRE)
# [4] = system: Escherichia coli BE1121 strain; experiment: MIC for Escherichia coli BE1121 strain; settings: Escherichia coli, BE1121STRAIN, read-out: MIC Escherichia coli BE1121
# [5] = system: Enterococcus faecalis 5038 strain; experiment: MIC for Enterococcus faecalis 5038 strain; settings: read-out: MIC Enterococcus faecalis 5038
# [6] = system: Escherichia coli K-12 strain; experiment: MIC for Escherichia coli K-12 strain; settings: Escherichia coli, K12STRAIN, read-out: MIC Escherichia coli K12
# [7] = system: Staphylococcus aureus 209P strain; experiment: MIC for Staphylococcus aureus 209P strain; settings: Staphylococcus aureus, read-out: MIC Straphyrococcus aureus 209P
# [8] = system: Staphylococcus aureus MRSA No. 17 (methicillin-resistant Staphylococcus aureus: MRSA); experiment: MIC for Staphylococcus aureus MRSA No. 17; settings: read-out: MIC Straphyrococcus aureus MRSA No. 17 (MRSA)
# [9] = system: Staphylococcus aureus Smith strain; experiment: MIC for Staphylococcus aureus Smith strain; settings: read-out: MIC Straphyrococcus aureus Smith
# [10] = NCTC12201 strain (VRE), Heart Infusion Broth medium, 37° C. overnight, turbidity
# [11] = BE1121 strain, regular bouillon medium, 37° C. overnight, turbidity
# [12] = 5038 strain, Heart Infusion Broth medium, 37° C. overnight, turbidity
# [13] = K-12 strain, regular bouillon medium, 37° C. overnight, turbidity
# [14] = 209P strain, regular bouillon medium, 37° C. overnight, turbidity
# [15] = MRSA No. 17, regular bouillon medium, 37° C. overnight, turbidity
# [16] = Smith strain, regular bouillon medium, 37° C. overnight, turbidity
SMILES,MIC [1],MIC [2],"MIC [3, 10]","MIC [4, 11]","MIC [5, 12]","MIC [6, 13]","MIC [7, 14]","MIC [8, 15]","MIC [9, 16]",MIC [3],MIC ([8]; MRSA),MIC [9],MIC [4],MIC [6],MIC ([7]; 209P),MIC ([5]; 5038STRAIN)
"CCCCCCCCCCOCC(O)=C1C(=O)N(C(=O)Nc2ccc(OC)cc2)c2ccc(F)cc21 [A047, N-(4-methoxyphenylaminocarbonyl)-3-decyloxyacetyl-5-fluoro-2-oxyindole]",1 µg/mL,0.25 µg/mL,16 µg/mL,128 µg/mL,4 µg/mL,128 µg/mL,128 µg/mL,128 µg/mL,8 µg/mL,–,–,–,–,–,–,–
"CCCCCCCCCC(O)=C1C(=O)N(C(=O)Nc2ccc(OC)cc2)c2ccc(F)cc21 [A048, N-(4-methoxyphenylaminocarbonyl)-3-decanoyl-5-fluoro-2-oxyindole]",32 µg/mL,256 µg/mL,–,256 µg/mL,128 µg/mL,256 µg/mL,256 µg/mL,–,–,256 µg/mL,256 µg/mL,256 µg/mL,–,–,–,–
"CCCCCCCCCC(=O)N1C(=O)/C(=C(\O)COC)c2ccccc21 [A049, N-decanoyl-3-methoxyacetyl-2-oxyindole]",0.5 µg/mL,0.5 µg/mL,0.5 µg/mL,128 µg/mL,0.5 µg/mL,256 µg/mL,256 µg/mL,256 µg/mL,1 µg/mL,–,–,–,–,–,–,–
"CCCCCCCCCC(=O)N1C(=O)/C(=C(\O)COC)c2cc(F)ccc21 [A050, N-decanoyl-3-methoxyacetyl-5-fluoro-2-oxyindole]",0.25 µg/mL,0.5 µg/mL,0.5 µg/mL,128 µg/mL,0.5 µg/mL,256 µg/mL,256 µg/mL,256 µg/mL,0.5 µg/mL,–,–,–,–,–,–,–
"CCCCCCCCCC(=O)N1C(=O)/C(=C(/C)O)c2cc(F)ccc21 [A051, N-decanoyl-3-acetyl-5-fluoro-2-oxyindole]",1 µg/mL,8 µg/mL,0.25 µg/mL,–,0.5 µg/mL,–,–,4 µg/mL,0.5 µg/mL,–,–,–,2 µg/mL,56 µg/mL,4 µg/mL,–
"CCCCCCCCCC(=O)N1C(=O)/C(=C(\O)c2ccccc2)c2cc(F)ccc21 [A052, N-decanoyl-3-benzoyl-5-fluoro-2-oxyindole]",0.5 µg/mL,0.5 µg/mL,–,128 µg/mL,–,256 µg/mL,64 µg/mL,–,–,0.5 µg/mL,64 µg/mL,0.5 µg/mL,–,–,–,0.25 µg/mL
"CCCCCCCCCC(O)=C1C(=O)N(C(=O)Nc2ccc(OC(F)(F)F)cc2)c2ccccc21 [A053, N-(4-(trifluoromethoxy)phenylaminocarbonyl)-3-decanoyl-2-oxyindole]",16 µg/mL,32 µg/mL,128 µg/mL,128 µg/mL,128 µg/mL,128 µg/mL,256 µg/mL,256 µg/mL,256 µg/mL,–,–,–,–,–,–,–
"CCCCCCCCCC(O)=C1C(=O)N(C(=O)Nc2ccccc2C(F)(F)F)c2ccccc21 [A054, N-(2-(trifluoromethyl)phenylaminocarbonyl)-3-decanoyl-2-oxyindole]",< 0.125 µg/mL,< 0.125 µg/mL,1 µg/mL,256 µg/mL,1 µg/mL,256 µg/mL,2 µg/mL,2 µg/mL,0.5 µg/mL,–,–,–,–,–,–,–
"CCCCCCCCCCOCC(O)=C1C(=O)N(C(=O)OC(C)(C)C)c2ccc(F)cc21 [A055, N-Boc-3-decyloxyacetyl-5-fluoro-2-oxyindole]",0.25 µg/mL,2 µg/mL,128 µg/mL,256 µg/mL,128 µg/mL,256 µg/mL,128 µg/mL,128 µg/mL,128 µg/mL,–,–,–,–,–,–,–
"CCCCCCCCOCC(O)=C1C(=O)N(C(C)=O)c2ccccc21 [A057, N-acetyl-3-octyloxyacetyl-2-oxyindole]",0.25 µg/mL,0.5 µg/mL,2 µg/mL,128 µg/mL,1 µg/mL,128 µg/mL,8 µg/mL,16 µg/mL,1 µg/mL,–,–,–,–,–,–,–
"CCCCCCCCOCC(O)=C1C(=O)N(C(=O)Nc2ccccc2)c2ccccc21 [A058, N-(phenylaminocarbonyl)-3-octyloxyacetyl-2-oxyindole]",< 0.125 µg/mL,< 0.125 µg/mL,0.25 µg/mL,128 µg/mL,0.25 µg/mL,128 µg/mL,64 µg/mL,128 µg/mL,0.5 µg/mL,–,–,–,–,–,–,–
"CCCCCCCCC(O)=C1C(=O)N(C(=O)Nc2ccccc2)c2ccc(F)cc21 [A059, N-(phenylaminocarbonyl)-5-fluoro-3-nonanoyl-2-oxyindole]",8 µg/mL,4 µg/mL,25 µg/mL,–,0.5 µg/mL,–,–,64 µg/mL,0.5 µg/mL,–,–,–,256 µg/mL,128 µg/mL,64 µg/mL,–
"CCCCCCCCCC(=O)N1C(=O)C(=C(O)c2ccc(Cl)cc2)c2ccccc21 [A060, N-decanoyl-3-(4-chlorobenzoyl)-2-oxyindole]",0.5 µg/mL,1 µg/mL,–,128 µg/mL,–,128 µg/mL,64 µg/mL,–,–,1 µg/mL,16 µg/mL,1 µg/mL,–,–,–,1 µg/mL
"CCCCCCCCCC(=O)N1C(=O)C(=C(O)c2ccc(OC)cc2)c2ccccc21 [A062, N-decanoyl-3-(4-methoxybenzoyl)-2-oxyindole]",4 µg/mL,8 µg/mL,–,256 µg/mL,–,256 µg/mL,128 µg/mL,–,–,2 µg/mL,16 µg/mL,2 µg/mL,–,–,–,2 µg/mL
"CCCCCCCCCC(=O)N1C(=O)C(=C(O)c2ccccc2O)c2ccccc21 [A063, N-decanoyl-3-(2-hydroxybenzoyl)-2-oxyindole]",16 µg/mL,256 µg/mL,–,128 µg/mL,–,128 µg/mL,256 µg/mL,–,–,256 µg/mL,256 µg/mL,256 µg/mL,–,–,–,256 µg/mL
"CCCCCCCCCC(=O)c1c(O)c2ccc(OC)cc2oc1=O [B001, 3-decanoyl-4-hydroxy-7-methoxycoumarin]",64 µg/mL,64 µg/mL,64 µg/mL,256 µg/mL,64 µg/mL,256 µg/mL,256 µg/mL,256 µg/mL,128 µg/mL,–,–,–,–,–,–,–
"CCCCC1CCC(C(=O)c2c(O)c3cc(F)ccc3oc2=O)CC1 (stereo not drawn) [B009, 3-(4-butylcyclohexylcarbonyl)-6-fluoro-4-hydroxycoumarin]",0.25 µg/mL,1 µg/mL,–,4 µg/mL,–,256 µg/mL,1 µg/mL,–,–,0.5 µg/mL,1 µg/mL,0.5 µg/mL,–,–,–,0.5 µg/mL
